Ends that are not written are not given here.
How the values were obtained:
[1] = tested on: circulating CD8^+ T cells; assay: ex vivo HLA-A3 multimer (MMr) staining of PBMCs; type: cell-based, human; conditions: HLA-A3^+ T1D and healthy donors
Description: HLA-A3 MMrs were produced and used as described (Gonzalez-Duque, Cell Metab 2018). Each peptide-HLA-A3 complex was used at a final concentration of 8-27 nM and conjugated with fluorochrome-labeled streptavidin at a 1:4 ratio. The concentration of each fluorescent MMr was corrected for the variable staining index of each streptavidin, in order to obtain a distinct double-MMr^+ population for each fluorochrome pair. Compensations were set using fluorescence-minus-one samples (i.e. omitting one streptavidin at a time). The combinatorial MMr panel was first set up by staining HLA-A3^+ PBMCs with the same set of fluorescent streptavidin-labeled MMrs, all loaded with the Flu NP265-273 epitope, which yielded a similar MMr^+CD8^+ T-cell frequency for all the 15 MMr combination pairs.
PBMCs were thawed at 37° C. and immediately diluted in pre-warmed AIM-V medium. Following centrifugation and one additional wash in AIM-V, PBMCs were counted and rested in the presence of 50 nM dasatinib for 30 min at 37° C. to prevent internalization of T-cell receptors before magnetic depletion of CD8^− cells (StemCell Technologies). Staining was performed for 20 min at 20° C. in […] PBS-dasatinib for 10^7 cells with combinatorial double-coded MMr panels, followed, without washing, by CD3-APC-H7 (RRID AB_1645475), CD8-PE-Cy7 (AB_396852), CD45RA-FITC (AB_395879), CCR7-BV421 (AB_2728119) monoclonal antibodies and Live/Dead Aqua (ThermoFisher) staining at 4° C. for 20 min. After one wash, cells were acquired using a FACSAria III cytometer. […] Flow cytometry data were analyzed with FlowJo v10 and Graphpad Prism 7.0 software. Cells were sequentially gated on small lymphocytes, singlets, live cells (Live/Dead Aqua l, CD3^+CD8^+ T cells and total PE^+, PE-CF594^+, APC^+, BV650^+, BV711^+ and BV786^+ MMr^+ T cells. Using Boolean operators, these latter gates allowed to selectively visualize each double-MMr^+ population by including only those events positive for the corresponding fluorochrome pair. For example, SCG3166-174 MMr^+ cells (PE^+PE-CF594^+) were visualized by gating on events that were PE^+PE-CF594^+APC^−BV650^−BV711^−BV786^−. Events negative for all MMr fluorochromes (PE^−PE-CF594^−APC^−BV650^−BV711^−BV786^−) were represented in the same PE/PE-CF-594 dot plot to set the double-MMr^+ gate. CD45RA and CCR7 staining was subsequently visualized by gating on these MMr^+ cells.

[2] = tested on: circulating CD8^+ T cells; assay: ex vivo combinatorial HLA-A2 MMr assay on PBMCs; type: cell-based, human
Description: All peptides were synthesized at >90% purity (Synpeptides). HLA-A2 MMrs were produced as described (Leisner et al., 2008) and staining performed in the presence of 50 nM dasatinib (Lissina et al., 2009), as described (Culina et al., 2018). Briefly, cryopreserved PBMCs were magnetically depleted of CD8^− cells (StemCell Technologies), stained with the combinatorial MMr panels (Hadrup et al., 2009) and acquired using a FACSAria III cytometer.

[3] = tested on: pancreas-infiltrating cells of HLA-A2^+ T1D patients; assay: in-situ HLA-A2 MMr staining on pancreas sections; type: cell-based, human; conditions: 2 HLA-A2^+ T1D cases (nPOD)
Description: In-situ staining was performed as described (Culina et al., 2018). Unfixed, frozen sections were dried for 2 h, loaded with 1 μg of MMrs overnight at 4° C., washed gently with phosphate-buffered saline and fixed in 2% paraformaldehyde for 10 min. After a further wash, endogenous peroxidase activity was blocked with 0.3% H2O2. Sections were then incubated serially with rabbit anti-phycoerythrin, horseradish peroxidase-conjugated swine anti-rabbit and 3,3′-diaminobenzidine tetrahydrochloride substrate (ThermoFisher). After a final wash, sections were counterstained with hematoxylin, dehydrated via sequential passages in 95-100% ethanol and xylene, mounted and analyzed using a Nikon Eclipse Ni microscope with NIS-Elements Analysis D software v4.40.

[4] = tested on: islet-infiltrating CD8^+ T cells of NOD mice; assay: IFN-γ recall assay of islet-infiltrating cells against peptide-pulsed K^d+ L cells; type: cell-based, mouse; conditions: 12-16-week-old NOD females; for percentage of IFN-γ^+CD8^+ cells, median / percentage of IFN-γ^+CD8^+ cells, positive range: 6 h recall; for positive mice (IFN-γ^+CD8^+ cells >1.8%): positive / tested
Excerpt: Peptides predicted to be restricted by the murine MHC Class I K^d molecule were identified using prediction algorithms and scanning of the whole murine protein sequence. Peptides were first tested in pools, and positive pools subsequently deconvoluted for reactivity against individual peptides. To this end, islets were isolated from 12-16-week-old NOD mice by collagenase digestion and put in culture with recombinant human IL-2 (Proleukin, Novartis) for 5 days as described (Brezar et al, Eur J Immunol 2012). Cells exiting the islets were subsequently collected and subjected to recall assays against K^d+ L antigen-presenting cells pulsed with the indicated peptides for 6 h in the presence of brefeldin-A, followed by intracellular staining for IFN-γ. The TUM, Ins B15-23 and IGRP 206-214 peptides were included as negative control and positive controls, respectively.

[5] = HLA-A2^+ healthy donors, screening
[6] = HLA-A2^+ recent-onset T1D and healthy subjects (n=10/each)

Substance: KIF1A860-868: HLA-A3-restricted islet peptide from KIF1A (LLYPVPLVH)
- validation as HLA-A3-restricted CD8^+ T-cell epitope [1]: positive hits

Substance: SCG3166-174: HLA-A3-restricted islet peptide from secretogranin III (AVFDKIVSK)
- validation as HLA-A3-restricted CD8^+ T-cell epitope [1]: positive hits

Substance: CHGA344-352: HLA-A2-restricted HLA-eluted β-cell peptide from chromogranin A (KMDQLAKEL)
- cognate naïve CD8^+ T-cell repertoire (frequency 1-50/10^6, clustered MMr staining) validated [2, 5]: validated

Substance: KCNK16129-137: HLA-A2-restricted HLA-eluted β-cell peptide from KCNK16 (ALLGIPLNV)
- cognate naïve CD8^+ T-cell repertoire (frequency 1-50/10^6, clustered MMr staining) validated [2, 5]: validated

Substance: PNMA250-58: HLA-A3-binding islet peptide not validated as CD8+ T-cell epitope (RLLGKIFRK)
- validation as HLA-A3-restricted CD8^+ T-cell epitope [1]: single exception

Substance: ZnT8186-184: positive control islet peptide (VAANIVLTV; UniProt Q8IWU4 186-194, looked up, fragment) [reference compound]
- in-situ MMr staining of pancreas sections [3]: MMr^+ cells could be detected

Substance: FLSGAVNRL [SCG5-009186-194]
- cognate naïve CD8^+ T-cell repertoire (frequency 1-50/10^6, clustered MMr staining) validated [2, 5]: validated
- frequency of MMr^+ cells (in words) [2, 6]: particularly high and clustered

Substance: TYFLLPLLL [Ucn3 5-13, murine Ucn3 peptide predicted to be restricted by K^d]
- percentage of positive mice [4]: 67%
- percentage of IFN-γ^+CD8^+ cells, median [4]: 2.3%
- percentage of IFN-γ^+CD8^+ cells, positive range [4]: 2.1-8.6%
- positive mice (IFN-γ^+CD8^+ cells >1.8%) [4]: 8/12

Substance: ISL1276-284: HLA-A2-restricted HLA-eluted peptide from insulin gene enhancer protein ISL1 (GLQANPVEV)
- cognate naïve CD8^+ T-cell repertoire (frequency 1-50/10^6, clustered MMr staining) validated [2, 5]: validated
- median frequency detected in peripheral blood ([2]; T1D patients): 7.2×10^−6
- in-situ MMr staining of pancreas sections [3]: MMr^+ cells could be detected

Substance: VFSCLNTAL [Ucn3 32-40, murine Ucn3 peptide predicted to be restricted by K^d]
- percentage of positive mice [4]: 67%
- percentage of IFN-γ^+CD8^+ cells, median [4]: 1.9%
- percentage of IFN-γ^+CD8^+ cells, positive range [4]: 1.9-3.3%
- positive mice (IFN-γ^+CD8^+ cells >1.8%) [4]: 8/12

Substance: PCSK230-38: HLA-A2-restricted HLA-eluted β-cell peptide from proprotein convertase 2 (FTNHFLVEL)
- cognate naïve CD8^+ T-cell repertoire (frequency 1-50/10^6, clustered MMr staining) validated [2, 5]: validated

Substance: GQWEDASLLSK
- validation as HLA-A3-restricted CD8^+ T-cell epitope [1]: positive hits

Substance: GYRDINEIDI [Pcsk2 109-118, murine Pcsk2 peptide predicted to be restricted by K^d]
- percentage of positive mice [4]: 50%
- percentage of IFN-γ^+CD8^+ cells, median [4]: 1.8%
- percentage of IFN-γ^+CD8^+ cells, positive range [4]: 1.9-4.3%

Substance: IGRP 206-214: positive control peptide in NOD recall assay (VYLKTNVFL; UniProt Q9Z186 206-214, looked up, fragment) [reference compound]
- percentage of positive mice [4]: 100%
- percentage of IFN-γ^+CD8^+ cells, median [4]: 12.5%
- percentage of IFN-γ^+CD8^+ cells, positive range [4]: 4.5-25.3%
- positive mice (IFN-γ^+CD8^+ cells >1.8%) [4]: 13/13

Substance: MLMPVHFLL
- cognate naïve CD8^+ T-cell repertoire (frequency 1-50/10^6, clustered MMr staining) validated [2, 5]: validated
- frequency of MMr^+ cells (in words) [2, 6]: particularly high and clustered

Substance: SCG5186-195: HLA-A2-restricted HLA-eluted β-cell peptide from SCG5 (7B2) (YLQGQRLDNV)
- cognate naïve CD8^+ T-cell repertoire (frequency 1-50/10^6, clustered MMr staining) validated [2, 5]: validated

Substance: PPI6-14: known preproinsulin β-cell epitope used as β-cell positive control (RLLPLLALL; UniProt P01308 6-14, looked up, fragment) [reference compound]
- frequency of CD8^+ T cells recognizing the peptide [2, 5]: 1-50 /10^6 CD8^+ T cells
- frequency of circulating CD8^+ T cells recognizing the peptide ([2]; HLA-A2^+ recent-onset T1D and healthy subjects (n=10/each), similar in both): 1-50 /10^6 CD8^+ T cells

Substance: KIF1A1347-1355: HLA-A2-restricted HLA-eluted β-cell peptide from Kinesin Family Member 1A (VLDTSVAYV)
- cognate naïve CD8^+ T-cell repertoire (frequency 1-50/10^6, clustered MMr staining) validated [2, 5]: validated

Substance: RLKPSLVGK [SCG5-009193-201, HLA-A3 restricted peptide from mRNA splice variant SCG5-009]
- validation as HLA-A3-restricted CD8^+ T-cell epitope [1]: positive hits

Substance: RYLEHVQAVI [Pcsk2 501-510, murine Pcsk2 peptide predicted to be restricted by K^d]
- percentage of positive mice [4]: 63%
- percentage of IFN-γ^+CD8^+ cells, median [4]: 2.7%
- percentage of IFN-γ^+CD8^+ cells, positive range [4]: 2.1-8.0%
- positive mice (IFN-γ^+CD8^+ cells >1.8%) [4]: 5/8

Substance: LYDESCSSTL [Pcsk2 341-350, murine Pcsk2 peptide predicted to be restricted by K^d]
- percentage of positive mice [4]: 75%
- percentage of IFN-γ^+CD8^+ cells, median [4]: 3.3%
- percentage of IFN-γ^+CD8^+ cells, positive range [4]: 1.9-5.2%
- positive mice (IFN-γ^+CD8^+ cells >1.8%) [4]: 6/8

Source: US12098179B2, “Antigenic peptides deriving from urocortin 3 and uses thereof for the diagnosis and treatment of type 1 diabetes” (INSERM (INSTITUT NATIONAL DE LA SANTÉ ET DE LA RECHERCHE …, priority 2018, dated 2024)
